{"source": "patent US20220252575A1", "about": "“SCREENING METHOD AND TOXICITY EVALUATION METHOD” (Public University Corporation Yokohama City University, priority 2019, published 2022)", "system": "iPS cell-derived human hepatic sinusoidal endothelial cells", "test": "Detection of membrane attack complex in iPS cell-derived human hepatic sinusoidal endothelial cell with Oxaliplatin administration", "assay_type": "cell-based", "details": "Oxaliplatin final concentration 20 μM vs solvent (ethanol), 3% human serum, 10% organoid culture supernatant"}
{"compound": "O=C1[O][Pt]2([NH][C@@H]3CCCC[C@H]3[NH]2)[O]C1=O", "note": "[Oxaliplatin]", "values": [{"measurement": "number of cells (quantified with DAPI as an index)", "setting": "24 hr (FIG. 4A)", "value": "significant decrease in the number of cells"}, {"measurement": "amount of MAC formed by human serum", "setting": "24 hr (FIG. 4B)", "value": "significantly increased"}]}
